Assay [1] relates to STAT3 phosphorylation in Ba/F3 cells stably expressing the human IL-21 receptor. Briefly: IL-21-induced phospho-STAT3 by flow cytometry. It counts as cell-based. The conditions noted are these: 1 μM, 1 h pre-incubation. As to the method: To assess whether Cpd A affected STAT3 activity we induced STAT3 phosphorylation in Ba/F3 cells stably expressing the human IL-21 receptor (kindly provided by Dr. Max Warncke, Novartis). Cells were pre-incubated for 1 h with 10 μM of Cpd A or with 1 μM of the pan-JAK inhibitor CP690550. To induce STAT3 activity, the cells were stimulated for 1.5 h with recombinant human IL-21 (3 nM), followed by two washing steps using buffer containing PBS/0.5% BSA. The cells were fixed with 2% paraformaldehyde for 15 min at room temperature, washed and resuspended in ice-cold 90% methanol solution and stored overnight at −20°C. The samples were washed and stained for 1 h with an Alexa 647-labeled anti-phospho (pY705)-STAT3 antibody (BD biosciences). After two washes the cells were analyzed using a LSR Fortessa (BD Bioscience) and analyzed using FlowJo software (Tree Star).

In assay [2] the test system is HUT78 T-cells stably expressing full-length eGFP-RORγt. As to the kind of experiment: IL-17A / IL-2 production by RORγt transduced HUT78 T-cell line. The conditions noted are these: PMA plus anti-CD3, 48 h, ELISA. The class given is cell-based, human.
For the next assay, the system named is total human CD4+ T-cells. Briefly: Th17 polarization of total CD4+ T-cells, cytokine ELISA. The class given is cell-based. The note with it: total CD4+ T-cells, Th17 polarization 72 h, ELISA; read-out: IC50, IL-17A secretion. As to the method:
Total, naive and memory CD4^+ T cells were isolated from Peripheral blood mononuclear cells (PBMCs) from healthy volunteers by density gradient centrifugation using Ficoll Paque (GE). Total, naive or memory CD4^+ T-cells were prepared by immunomagnetic separation using the respective CD4^+ T-cell enrichment kits resulting in untouched highly purified subsets (EasySep™, Stem Cell). Purity was assessed by flow cytometry and was between 95 and 98% for the total CD4^+ T-cells. The purity of naive (CD45RA^+CD45RO^−) and memory (CD45RA^−CD45RO^+) CD4^+T-cells ranged between 95 and 98%, respectively. For T-cell stimulation experiments, cells were treated as previously published ([44]). Briefly, T-cells were stimulated with plate-bound monoclonal antibodies against CD3 (1 μg/ml, clone OKT-3, BioXcell) and CD28 (1 μg/ml, clone CD28.2, BioLegend). For Th17 polarization assays, IL-6 (20 ng/ml), TGF-β1 (5 ng/ml), IL-1β (10 ng/ml), and IL-23 (10 ng/ml) were added. For Th1 polarization assays, IL-12 (10 ng/ml) and anti-IL-4 antibody (5 μg/ml), for Th2 polarizations, IL-4 (10 ng/ml) and anti-IFN-γ antibody (5 μg/ml) were added. For Th0 polarization assays, cells were only stimulated with CD3 and CD28 antibodies. Supernatants were collected after 3 or 7 days of incubation for total or naive/memory CD4^+ T-cell polarizations, respectively. Cytokine concentrations were quantified by ELISA according to the manufacturer's instructions (eBioscience or BioLegend).

The test system of another assay is NHEKs. As to the kind of experiment: IL-17A/TNFα spike-in in primary keratinocytes (NHEKs), qRT-PCR. It counts as cell-based, human. The conditions noted are these: 0.75 μg/ml; similar to TNFα stimulation. As to the method: The HaCaT keratinocyte cell line was purchased from AddexBio and was maintained in RPMI 1640 medium supplemented with Glutamax, Penicillin/Streptomycin (all from Gibco) and 10% FCS (PAA). Normal primary human epidermal keratinocytes (NHEKs) were purchased from Lonza and PromoCell, respectively. Cells were cultured in Keratinocyte basal growth medium (KBM; Lonza) containing KGM2 growth supplements including insulin, human epidermal growth factor, bovine pituitary extract, hydrocortisone, epinephrine, transferrin, and gentamicin/amphotericin B (Lonza). HaCaT cells were incubated in a 96-well-microtiter plate (2 × 10^4 cells/well) with Th17 cytokine-containing supernatants obtained from total CD4^+ T-cells that were polarized for 72 h in the presence of anti-CD3/CD28 antibodies and a Th17 polarization cocktail as described above. […] Cytokine concentrations in supernatants were determined from representative experiments and they contained approximately 150 pg/ml or 600 pg/ml of IL-17 in 10 μM or in 0.13 nM treated samples, respectively. […]
Total RNA from human Th17 cells (6 × 10^5 cells), RORγt-RORE HUT78 cells (4 × 10^5 cells) and HaCaT cells (6 × 10^4 cells) was extracted using RNeasy kit including a DNAse I digestion step according to the manufacturer‘s protocol (Qiagen). […] Quantitative RT-PCR analysis was performed using a TaqManViiA7 (Applied Biosystems). […]

The next assay relates to HaCaT keratinocytes. Briefly: IL-17-driven HaCaT keratinocyte responses (Th17 supernatants or spiked cytokines), qRT-PCR. It counts as cell-based, human. As for the experimental part:
The HaCaT keratinocyte cell line was purchased from AddexBio and was maintained in RPMI 1640 medium supplemented with Glutamax, Penicillin/Streptomycin (all from Gibco) and 10% FCS (PAA). Normal primary human epidermal keratinocytes (NHEKs) were purchased from Lonza and PromoCell, respectively. Cells were cultured in Keratinocyte basal growth medium (KBM; Lonza) containing KGM2 growth supplements including insulin, human epidermal growth factor, bovine pituitary extract, hydrocortisone, epinephrine, transferrin, and gentamicin/amphotericin B (Lonza). HaCaT cells were incubated in a 96-well-microtiter plate (2 × 10^4 cells/well) with Th17 cytokine-containing supernatants obtained from total CD4^+ T-cells that were polarized for 72 h in the presence of anti-CD3/CD28 antibodies and a Th17 polarization cocktail as described above. […] Cytokine concentrations in supernatants were determined from representative experiments and they contained approximately 150 pg/ml or 600 pg/ml of IL-17 in 10 μM or in 0.13 nM treated samples, respectively. The TNF-α concentration was similar in supernatants exposed to low or high Cpd A concentrations and was 4 ng/ml. To study the impact of the IL-17 cytokine, IL-17 in the supernatants and in the spike-in cocktails was neutralized by a 0.5 h pre-incubation with an IL-17-specific antibody [0.75 μg/ml; Secukinumab (Cosentyx®, Novartis)]. All cultures were incubated in triplicates and after a 24 h incubation period, HaCaT cells (6 × 10^4 cells/sample) and NHEKs (1 × 10^5 cells/sample) were harvested and further processed for qRT-PCR analysis.
Total RNA from human Th17 cells (6 × 10^5 cells), RORγt-RORE HUT78 cells (4 × 10^5 cells) and HaCaT cells (6 × 10^4 cells) was extracted using RNeasy kit including a DNAse I digestion step according to the manufacturer‘s protocol (Qiagen). Frozen skin biopsies (8 mm punches) were resuspended in RLT buffer (Qiagen) containing 1% β-mercaptoethanol and homogenized using a Precellys-Cryolys device (Bertin Instruments) according to the manufacturer's instructions. cDNAs were prepared with the High Capacity cDNA Reverse Transcription Kit (Applied Biosystems). Quantitative RT-PCR analysis was performed using a TaqManViiA7 (Applied Biosystems). All runs were accompanied by the internal control gene human β-glucoronidase (Gus) (431088E). The samples were run in triplicate or in hexaplicate and normalized to Gus using the ΔΔCt method to provide arbitrary units representing relative expression levels. The following Taqman probes were used for RT-PCR (Thermo Scientific): RORC (Hs01076112_m1), IL17A (Hs00936345_m1), IL22 (Hs01574154_m1), IL26 (Hs00218189_m1), IL23R (Hs00332759_m1), CCR6 (Hs00218189_m1), NFKBIZ (Hs00355476_m), DEFB4A (Hs00823638_m1), IL36G (Hs00219742_m1), and CCL20 (Hs00355476_m1).

Assay [3] concerns the target T1, human RORγt ligand binding domain (264-518), His6-tagged (human, UniProt P51449-1 264-518).
T1 construct: also called RORγt-LBD; His6-tagged RORγt-LBD; source: produced at Novartis
T1 sequence (looked up): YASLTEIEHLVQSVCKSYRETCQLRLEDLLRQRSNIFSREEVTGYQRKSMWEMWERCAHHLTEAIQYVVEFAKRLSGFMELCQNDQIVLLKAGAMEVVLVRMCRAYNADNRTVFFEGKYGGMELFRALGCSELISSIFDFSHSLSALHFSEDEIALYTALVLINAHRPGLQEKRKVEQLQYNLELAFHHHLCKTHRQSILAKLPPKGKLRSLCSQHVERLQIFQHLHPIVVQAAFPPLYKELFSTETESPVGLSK
As to the kind of experiment: FRET or BRET; TR-FRET in solution: 6 nM His6-tagged RORγt-LBD, 90 nM biotinylated RIP140 co-activator peptide, 0.45 nM Cy5-labeled streptavidin, 1.5 nM Europium-labeled anti-His6 antibody; 1 h incubation; emissions at 615 and 665 nm; displacement by the small molecules Cpd A or SR2211. The note with it: both partners purified.

The text below walks through data of article PMC6443933, “Antagonizing Retinoic Acid-Related-Orphan Receptor Gamma Activity Blocks the T Helper 17/Interleukin-17 Pathway Leading to Attenuated Pro-inflammatory Human Keratinocyte and Skin Responses” (Frontiers in Immunology, 2019).

* marks the point of attachment. Biotin = O=C1N[C@H]2[C@H](CS[C@H]2CCCCC(=O)*)N1; Ahx = NCCCCCC(=O)O

As to `C[C@@H]1CCN(C(=O)CC#N)C[C@@H]1N(C)c1ncnc2[nH]ccc12` [CP690550, reference compound], in assay [1], the “IL-21-induced STAT3 activity (pY705-STAT3)” value was “blocked”.
For the molecule `OC(c1ccc(-c2ccc(CN3CCN(Cc4ccncc4)CC3)cc2)c(F)c1)(C(F)(F)F)C(F)(F)F` [SR2211, reference compound], the IC50 is 257 ± 181 nM in assay [2] and 1480 ± 739 nM in the assay with total human CD4+ T-cells.
As to “Secukinumab: neutralizing IL-17-selective antibody (Cosentyx, Novartis)”, the “NFKBIZ, DEFB4A, CCL20, IL36G gene expression in NHEKs (spike-in)” value with NHEKs is on record as “reduced gene expression”. Besides, the “IL36G expression in HaCaT after IL-17 neutralization in Th17 supernatants” value in the assay on HaCaT keratinocytes (0.75 μg/ml) is “moderate inhibition”. In addition, the “IL-17A/TNFα-mediated gene expression in HaCaT (spike-in)” value in the assay on HaCaT keratinocytes (0.75 μg/ml pre-incubation of cytokines, similar to TNFα-induced levels) is “significantly impaired”. In the assay on HaCaT keratinocytes (0.75 μg/ml, to levels seen with Th17 cytokines only), the “IL-17 activated transcripts in HaCaT after IL-17 neutralization in Th17 supernatants” value is reported as “further downregulation”.

B1: biotinylated RIP140 derived co-activator peptide (peptide)
peptide: {Biotin-Ahx}-NSHQKVTLLQLLLGHKNEEN-NH2
SMILES: CC(C)C[C@H](NC(=O)[C@H](CC(C)C)NC(=O)[C@H](CC(C)C)NC(=O)[C@H](CCC(N)=O)NC(=O)[C@H](CC(C)C)NC(=O)[C@H](CC(C)C)NC(=O)[C@@H](NC(=O)[C@@H](NC(=O)[C@H](CCCCN)NC(=O)[C@H](CCC(N)=O)NC(=O)[C@H](Cc1c[nH]cn1)NC(=O)[C@H](CO)NC(=O)[C@H](CC(N)=O)NC(=O)CCCCCNC(=O)CCCC[C@@H]1SC[C@@H]2NC(=O)N[C@@H]21)C(C)C)[C@@H](C)O)C(=O)NCC(=O)N[C@@H](Cc1c[nH]cn1)C(=O)N[C@@H](CCCCN)C(=O)N[C@@H](CC(N)=O)C(=O)N[C@@H](CCC(=O)O)C(=O)N[C@@H](CCC(=O)O)C(=O)N[C@@H](CC(N)=O)C(N)=O
notes: also called RIP140 peptide; source: bought: Thermo Scientific
As to B1, the binding result in assay [3] is recorded as “binds”.
